# Measurements published in patent US8940310B2, “Methods of treatment using TLR7 and/or TLR9 inhibitors” (Dynavax Technologies Corporation, priority 2010, dated 2015).
# [I] = hypoxanthine (inosine); d = 2'-deoxy (DNA); m = 2'-O-methyl
# Tested on: human B-cells
# Assay: Human B-cells cultured in the presence of IRPs, IL-6
# [1] = Experiment # 5, Max Conc 4.0 uM
# [2] = Experiment # 6, Max Conc 4.0 uM
# [3] = Experiment # 1, Max Conc 4.0 uM
# [4] = Experiment # 8, Max Conc 2.0 uM
# [5] = Experiment # 2, Max Conc 4.0 uM
# [6] = Experiment # 9, Max Conc 2.0 uM
# [7] = Experiment # 4, Max Conc 4.0 uM
# [8] = Experiment # 7, Max Conc 4.0 uM
# [9] = Experiment # 11, Max Conc 2.0 uM
# [10] = Experiment # 10, Max Conc 2.0 uM
substance,measurement,setting,value
"5′-TGCTCCTGGAGGGGTTGTAAGTTTGT-3′ (DNA TGCTCCTGGAGGGGTTGTAAGTTTGT; DNA, backbone and methylation of C not given here; further chemistry not fully specified) [SEQ ID NO:68]",Normalized IL-6 Response (Percentage of Positive Control),[1],12%
same,Normalized IL-6 Response (Percentage of Positive Control),[2],6%
"5′-TGC TTG TCC TGG AGI GGT TGT AAG T-3′ (DNA TGCTTGTCCTGGAGNGGTTGTAAGT; DNA, [I] at 15, backbone and methylation of C not given here) [SEQ ID NO:64]",Normalized IL-6 Response (Percentage of Positive Control),[3],33%
same,Normalized IL-6 Response (Percentage of Positive Control),[4],19%
"5′-TGC TTG TCC TGG AGI GGT TGT-3′ (DNA TGCTTGTCCTGGAGNGGTTGT; DNA, [I] at 15, backbone and methylation of C not given here) [SEQ ID NO:74]",Normalized IL-6 Response (Percentage of Positive Control),[3],21%
same,Normalized IL-6 Response (Percentage of Positive Control),[5],25%
same,Normalized IL-6 Response (Percentage of Positive Control),[6],23%
"5′-TGC TGC TCC TTG AGI GGT TGT TTG T-3′ (DNA TGCTGCTCCTTGAGNGGTTGTTTGT; DNA, [I] at 15, backbone and methylation of C not given here) [SEQ ID NO:62]",Normalized IL-6 Response (Percentage of Positive Control),[7],49%
same,Normalized IL-6 Response (Percentage of Positive Control),[8],49%
"5′-UGC TGC TCC TGG AGI GGT TGT (DNA UGCTGCTCCTGGAGNGGTTGT; sugars from the 5' end m3 d18, [I] at 15, backbone not given here) [SEQ ID NO:125]",Normalized IL-6 Response (Percentage of Positive Control),[9],38%
"5′-UGC CAA TCC TGG AGI GGT GTT GT (DNA UGCCAATCCTGGAGNGGTGTTGT; sugars from the 5' end m3 d20, [I] at 15, backbone not given here) [SEQ ID NO:135]",Normalized IL-6 Response (Percentage of Positive Control),[4],42%
"5′-TGC TGC TCC TGG AGI GGT TGT AAG T-3′ (DNA TGCTGCTCCTGGAGNGGTTGTAAGT; DNA, [I] at 15, backbone and methylation of C not given here) [SEQ ID NO:78]",Normalized IL-6 Response (Percentage of Positive Control),[3],26%
same,Normalized IL-6 Response (Percentage of Positive Control),[9],29%
"5′-TGC TCC TTG AGI GGT TGT-3′ (DNA TGCTCCTTGAGNGGTTGT; DNA, [I] at 12, backbone not given here) [SEQ ID NO:71]",Normalized IL-6 Response (Percentage of Positive Control),[7],12%
same,Normalized IL-6 Response (Percentage of Positive Control),[1],15%
same,Normalized IL-6 Response (Percentage of Positive Control),[2],10%
same,Normalized IL-6 Response (Percentage of Positive Control),[8],12%
same,Normalized IL-6 Response (Percentage of Positive Control),[4],4%
same,Normalized IL-6 Response (Percentage of Positive Control),[6],14%
"5′-TGCTTGTCCTGGAGGGGTTGT (DNA TGCTTGTCCTGGAGGGTTGT; listed as DNA, chemistry not fully specified) [SEQ ID NO:204]",Normalized IL-6 Response (Percentage of Positive Control),[7],9%
"5′-UGC TTG TCC TGG AGI GGT TG-HEG-T (DNA NNNTTGTCCTGGAGNGGTTGNT; inosine, internal HEG spacer, chemistry not fully specified) [SEQ ID NO:142]",Normalized IL-6 Response (Percentage of Positive Control),[5],35%
same,Normalized IL-6 Response (Percentage of Positive Control),[4],22%
"5′-UGC TGC TCC TTG AGI GGT TGT AAG T (DNA UGCTGCTCCTTGAGNGGTTGTAAGT; sugars from the 5' end m3 d22, [I] at 15, backbone not given here) [SEQ ID NO:129]",Normalized IL-6 Response (Percentage of Positive Control),[10],51%
"5′-TGC TGC TCC TTG AGI GGT GTT GT (DNA TGCTGCTCCTTGAGNGGTGTTGT; DNA, [I] at 15, backbone not given here) [SEQ ID NO:179]",Normalized IL-6 Response (Percentage of Positive Control),[9],40%
"5′-UGCTTGTCCTGGAGGGGTTGT (DNA NNNTTGTCCTGGAGGGGTTGT; listed as DNA, chemistry not fully specified) [SEQ ID NO:87]",Normalized IL-6 Response (Percentage of Positive Control),[1],16%
same,Normalized IL-6 Response (Percentage of Positive Control),[2],12%
"5′-UGC TGC TCC TTG AGI GGT TGT (DNA UGCTGCTCCTTGAGNGGTTGT; sugars from the 5' end m3 d18, [I] at 15, backbone not given here) [SEQ ID NO:127]",Normalized IL-6 Response (Percentage of Positive Control),[10],46%
"5′-TGC TTG TCC TGG AGI GGT GTT GT-3′ (DNA TGCTTGTCCTGGAGNGGTGTTGT; DNA, [I] at 15, backbone not given here) [SEQ ID NO:65]",Normalized IL-6 Response (Percentage of Positive Control),[3],38%
same,Normalized IL-6 Response (Percentage of Positive Control),[6],21%
"5′-UGC TGC TCC TGG AGI GGT TGT AAG T (DNA UGCTGCTCCTGGAGNGGTTGTAAGT; sugars from the 5' end m3 d22, [I] at 15, backbone not given here) [SEQ ID NO:130]",Normalized IL-6 Response (Percentage of Positive Control),[10],49%
"5′-TGC TCC TGG AGG GGT TGT-HEG-HEG-3′ (DNA TGCTCCTGGAGGGGTTGTNN; 3' HEG-HEG, chemistry not fully specified) [SEQ ID NO:141]",Normalized IL-6 Response (Percentage of Positive Control),[7],8%
same,Normalized IL-6 Response (Percentage of Positive Control),[8],8%
"5′-UGC TCC TGG AGG GGT TGT (DNA NNNTCCTGGAGGGGTTGT; listed as DNA, chemistry not fully specified) [SEQ ID NO:83]",Normalized IL-6 Response (Percentage of Positive Control),[7],6%
same,Normalized IL-6 Response (Percentage of Positive Control),[8],6%
"5′-TGCTCCTGGAGGGGTTGTAAGT-3′ (DNA TGCTCCTGGAGGGGTTGTAAGT; DNA, backbone and methylation of C not given here; further chemistry not fully specified) [SEQ ID NO:67]",Normalized IL-6 Response (Percentage of Positive Control),[7],8%
same,Normalized IL-6 Response (Percentage of Positive Control),[1],7%
same,Normalized IL-6 Response (Percentage of Positive Control),[2],4%
same,Normalized IL-6 Response (Percentage of Positive Control),[8],8%
"5′-TGCTGCTCCTGGAGGGGTTGT-3′ (DNA TGCTGCTCCTGGAGGGGTTGT; DNA, backbone and methylation of C not given here; further chemistry not fully specified) [SEQ ID NO:60]",Normalized IL-6 Response (Percentage of Positive Control),[7],10%
same,Normalized IL-6 Response (Percentage of Positive Control),[8],10%
"5′TGC TCC TTG AGI GGT TGT TTG T-3′ (DNA TGCTCCTTGAGNGGTTGTTTGT; DNA, [I] at 12, backbone not given here) [SEQ ID NO:63]",Normalized IL-6 Response (Percentage of Positive Control),[7],46%
same,Normalized IL-6 Response (Percentage of Positive Control),[1],48%
same,Normalized IL-6 Response (Percentage of Positive Control),[2],41%
same,Normalized IL-6 Response (Percentage of Positive Control),[8],46%
"5′-TGCTTGTCCTGGAGGGGTTGT-3′ (DNA, backbone not given here; further chemistry not fully specified) [SEQ ID NO:43]",Normalized IL-6 Response (Percentage of Positive Control),[8],9%
"5′-TGC TGC TCC TTG AGI GGT TGT AAG T (DNA TGCTGCTCCTTGAGNGGTTGTAAGT; DNA, [I] at 15, backbone not given here) [SEQ ID NO:181]",Normalized IL-6 Response (Percentage of Positive Control),[9],38%
"5′-UGC HEG TCC TGG AGI GGT GTT GT (DNA NNNNTCCTGGAGNGGTGTTGT; HEG spacer, inosine, chemistry not fully specified) [SEQ ID NO:77]",Normalized IL-6 Response (Percentage of Positive Control),"Experiment # 3, Max Conc 4.0 uM",24%
"5′-UGCTGCTCCTTGAGGGGTTGUU UG U (DNA UGCTGCTCCTTGAGGGGTTGUUUGU; sugars from the 5' end m3 d16 m6, backbone not given here) [SEQ ID NO:104]",Normalized IL-6 Response (Percentage of Positive Control),[7],7%
same,Normalized IL-6 Response (Percentage of Positive Control),[8],7%
"5′-TGCTGCTCCTTGAGGGGTTGTTTGT-3′ (DNA TGCTGCTCCTTGAGGGGTTGTTTGT; DNA, backbone and methylation of C not given here; further chemistry not fully specified) [SEQ ID NO:58]",Normalized IL-6 Response (Percentage of Positive Control),[1],33%
same,Normalized IL-6 Response (Percentage of Positive Control),[2],29%
"5′-UGC TGC TCC TGG AGI GGT GTT GT (DNA UGCTGCTCCTGGAGNGGTGTTGT; sugars from the 5' end m3 d20, [I] at 15, backbone not given here) [SEQ ID NO:182]",Normalized IL-6 Response (Percentage of Positive Control),[10],53%
"5′-UGC TGC TCC TTG AGI GGT TGT (DNA UGCTGCTCCTTGAGNGGTTGT; sugars from the 5' end m3 d18, [I] at 15, backbone not given here) [SEQ ID NO:126]",Normalized IL-6 Response (Percentage of Positive Control),[9],37%
"5′-TGC TGC TCC TGG AGI GGT TGT-3′ (DNA TGCTGCTCCTGGAGNGGTTGT; DNA, [I] at 15, backbone and methylation of C not given here) [SEQ ID NO:66]",Normalized IL-6 Response (Percentage of Positive Control),[3],20%
same,Normalized IL-6 Response (Percentage of Positive Control),[6],18%
"5′-UGCTGCTCCTTGAGGGGTTGTTTGT (DNA NNNTGCTCCTTGAGGGGTTGTTTGT; listed as DNA, chemistry not fully specified) [SEQ ID NO:107]",Normalized IL-6 Response (Percentage of Positive Control),[7],43%
same,Normalized IL-6 Response (Percentage of Positive Control),[8],43%
"5′-TGCTGCTCCTTGAGGGGTTGT-3′ (DNA TGCTGCTCCTTGAGGGGTTGT; DNA, backbone and methylation of C not given here; further chemistry not fully specified) [SEQ ID NO:59]",Normalized IL-6 Response (Percentage of Positive Control),[7],12%
same,Normalized IL-6 Response (Percentage of Positive Control),[8],12%
"5′-TGCTGCTCCTGGAGGGGTTGTTTGT-3′ (DNA TGCTGCTCCTGGAGGGGTTGTTTGT; DNA, backbone and methylation of C not given here; further chemistry not fully specified) [SEQ ID NO:57]",Normalized IL-6 Response (Percentage of Positive Control),[1],22%
same,Normalized IL-6 Response (Percentage of Positive Control),[2],17%
